Data: ChEMBL document CHEMBL4418484, “Inhibitors of nkx2.5 for vascular remodelling” (2015)
Calls of active or inactive are those of the source. No cut-off for these calls is given here.

Key:
Homo sapiens [1] = species: Homo sapiens; experiment: Inhibition of casein kinase-2 in human pulmonary smooth muscle cells assessed as reduction in Nkx2-5 nuclear translocation
[2] = Effect on Nkx2-5 cytosolic expression in human pulmonary smooth muscle cells; assay type: ADME; conditions: cytosol
Homo sapiens [3] = species: Homo sapiens; experiment: Inhibition of casein kinase-2/Nkx2-5 in human pulmonary smooth muscle cells assessed as down-regulation of CCN2 protein expression at 10 nM by Western blot analysis
Homo sapiens [4] = species: Homo sapiens; experiment: Inhibition of casein kinase-2/Nkx2-5 in human pulmonary smooth muscle cells assessed as up-regulation of MYH11 protein expression at 1 nM by Western blot analysis
Homo sapiens [5] = species: Homo sapiens; experiment: Inhibition of casein kinase-2/Nkx2-5 in human pulmonary smooth muscle cells assessed as down-regulation of CCN2 protein expression at 1 nM by Western blot analysis
Mus musculus [6] = experiment: Inhibition of right ventricular systolic pressure increase in […] mouse hypoxia/Sugen pre-clinical model of pulmonary hypertension at 80 mg/kg dosed daily for 20 days starting immediately post experimental initiation; assay type: functional, organism-based
Homo sapiens [7] = species: Homo sapiens; experiment: Inhibition of de-differentiation of human pulmonary smooth muscle cells assessed as reduction in contractile to synthetic forms change; assay type: functional
Homo sapiens [8] = species: Homo sapiens; experiment: Inhibition of cell migration of human pulmonary smooth muscle cells by standard scratch assay; assay type: functional
Homo sapiens [9] = species: Homo sapiens; experiment: Inhibition of casein kinase-2/Nkx2-5 in human pulmonary smooth muscle cells assessed as down-regulation of COL1 protein expression at 1 nM by Western blot analysis
Mus musculus [10] = experiment: Effect on systemic pressure in […] mouse hypoxia/Sugen pre-clinical model of pulmonary hypertension at 80 mg/kg dosed daily for 20 days starting immediately post experimental initiation; assay type: ADME, organism-based; conditions: in vivo, 480 h
Homo sapiens [11] = species: Homo sapiens; experiment: Inhibition of cell proliferation of human pulmonary smooth muscle cells incubated up to 120 hrs; assay type: functional
Homo sapiens [12] = species: Homo sapiens; experiment: Inhibition of casein kinase-2/Nkx2-5 in human pulmonary smooth muscle cells assessed as up-regulation of MYH11 protein expression at 10 nM by Western blot analysis
Mus musculus [13] = experiment: Effect on systemic pressure in […] mouse hypoxia/Sugen pre-clinical model of pulmonary hypertension at 80 mg/kg dosed daily for 20 days starting 8 days post experimental initiation; assay type: functional, organism-based
Homo sapiens [14] = species: Homo sapiens; experiment: Inhibition of casein kinase-2/Nkx2-5 in human pulmonary smooth muscle cells assessed as up-regulation of ACTA2 protein expression at 1 nM by Western blot analysis
Homo sapiens [15] = species: Homo sapiens; experiment: Inhibition of casein kinase-2/Nkx2-5 in human pulmonary smooth muscle cells assessed as up-regulation of ACTA2 protein expression at 10 nM by Western blot analysis
Mus musculus [16] = experiment: Inhibition of right ventricular systolic pressure increase in […] mouse hypoxia/Sugen pre-clinical model of pulmonary hypertension at 80 mg/kg dosed daily for 20 days starting 8 days post experimental initiation; assay type: functional, organism-based
Homo sapiens [17] = species: Homo sapiens; experiment: Inhibition of casein kinase-2/Nkx2-5 in human pulmonary smooth muscle cells assessed as down-regulation of COL1 protein expression at 10 nM by Western blot analysis

SMILES | inhibition (Homo sapiens [1]) | Activity [2] | inhibition (Homo sapiens [3]) | inhibition (Homo sapiens [4]) | inhibition (Homo sapiens [5]) | inhibition (Mus musculus [6]) | inhibition (Homo sapiens [7]) | inhibition (Homo sapiens [8]) | inhibition (Homo sapiens [9]) | Activity (Mus musculus [10]) | inhibition (Homo sapiens [11]) | inhibition (Homo sapiens [12]) | Activity (Mus musculus [13]) | inhibition (Homo sapiens [14]) | inhibition (Homo sapiens [15]) | inhibition (Mus musculus [16]) | inhibition (Homo sapiens [17])
COc1cc(Nc2ncc3ccn(-c4cccc(CCC#N)c4)c3n2)cc(OC)c1OC | Active | Non-Toxic |  |  |  |  |  |  |  |  |  |  |  |  |  |  | 
O=C(O)c1ccc2c(c1)nc(Nc1cccc(Cl)c1)c1ccncc12 [SILMITASERTIB] |  |  | Active | Active | Active | Active | Dose-dependent effect | Dose-dependent effect | Active | Non-Toxic | Dose-dependent effect | Active | inactive | Active | Active | Active | Active
